Series [1] can be described thus: Stability against DHP-I, mouse. Type of series: in vitro ADME. The following applies: renal dehydropeptidase i, pH 7, 100 μg (titer)/ml, 37° C., HPLC, read-out: residual amount after 3 hours. How it is done:
(§1) The stabilities of the compounds according to the present invention against porcine and mouse renal dehydropeptidases were measured by the following method.
(§2) Kidney acetone powder, Porcine Type II(Sigma; Lot. 33H7225; 1.5 g) was suspended in a 50 mM Tris.HCl buffer (pH 7.0) containing 20% butanol, and the mixture was stirred at 5° C. for 48 hours. Dialysis (Cellulose tube 30/32; Viskase Sales Corp) was conducted with a 50 mM Tris.HCl buffer (pH 7.0) in order to remove butanol to a level of no smell of butanol. The dialysate was centrifuged at 10000×g (KUBOTA 6800) for 20 minutes to give a supernatant as a partly purified DHP-I, which was divided into portions and stored at -80° C. Also, a partly purified DHP-I was prepared from 1.5 g of Mouse (Lot. 23F8105), and stored in the same manner as above.
(§3) The compounds according to the present invention as a basic pharmaceutical was diluted with sterile purified water to prepare a solution having a titer of 2000 μg/ml. The solution of the compound according to the present invention having a titer of 2000 μg/ml was added to the partly purified DHP-I's of the above described animals so as to have a final concentration of 100 μg (titer)/ml. As a blank, 50 mM Tris.HCl buffer (pH 7.0) was used in place of the partly purified DHP-I's of the animals. After reaction at 37° C. for 3 hours, a portion of the reaction mixture was taken out, diluted with the same amount of methanol to stop the reaction by cooling in ice. The reaction mixture was filtered through SUNPLEP LCR13-LH, MILLIPORE), and subjected to HPLC (column: CAPCELL PACK C18 SG120, SHISEIDO; UV detector; mobile phase: acetonitrile--10 mM aqueous acetic acid solution) to measure the residual amount (%) of […] according to the following equation. [formula]

Series [2] can be described thus: Stability against DHP-I, porcine. It is filed as in vitro ADME. The following applies: pig, renal dehydropeptidase i, pH 7, 100 μg (titer)/ml, 37° C., HPLC, read-out: residual amount after 3 hours. Here is the method:
as §1, §2, §3

For another series, the system named is E. faecalis W-73. The series is described as follows: Anti-microbial activities (MIC). As to conditions: Enterococcus faecalis, W73, Sensitivity Disk agar-N+5% Horse blood, 10^6 CFU/ml, read-out: minimum inhibiting concentration (MIC). It is filed as cell-based. Here is the method: (§4) The minimum inhibiting concentrations (MIC, […]) of the compounds according to the present invention to various pathogenic bacteria was measured in accordance with the method described in CHEMOTHERAPY, vol. 16, No. 1, 99, 1968. The culture medium for measurement was Sensitivity Disk agar-N+5% Horse blood, and the amount of inoculants was 10^6 CFU/ml.

Another series has as its system S. epidermidis ATCC14990. In words: Anti-microbial activities (MIC). It is filed as cell-based. As to conditions: Staphylococcus epidermidis, Sensitivity Disk agar-N+5% Horse blood, 10^6 CFU/ml, read-out: minimum inhibiting concentration (MIC). How it is done:
as §4

The next series concerns B. catarrhalis W-0506. The series is described as follows: Anti-microbial activities (MIC). It is filed as cell-based. The following applies: Moraxella catarrhalis, W0506, Sensitivity Disk agar-N+5% Horse blood, 10^6 CFU/ml, read-out: minimum inhibiting concentration (MIC). How it is done: as §4
The next series has as its system C. freundii GN346. In words: Anti-microbial activities (MIC). It is filed as cell-based. As to conditions: Citrobacter freundii, Sensitivity Disk agar-N+5% Horse blood, 10^6 CFU/ml, read-out: minimum inhibiting concentration (MIC). How it is done: as §4
Another series concerns S. aureus 209P JC-1. In words: Anti-microbial activities (MIC). It is filed as cell-based. As to conditions: Staphylococcus aureus, Sensitivity Disk agar-N+5% Horse blood, 10^6 CFU/ml, read-out: minimum inhibiting concentration (MIC). How it is done:
as §4

The subject of another series is E. coli NIHJ JC-2. In words: Anti-microbial activities (MIC). Type of series: cell-based. As to conditions: Escherichia coli, NIHJJC2, Sensitivity Disk agar-N+5% Horse blood, 10^6 CFU/ml, read-out: minimum inhibiting concentration (MIC). How it is done: as §4
The test system of the next series is E. hirae ATCC8043. In words: Anti-microbial activities (MIC). It is filed as cell-based. As to conditions: Enterococcus hirae, Sensitivity Disk agar-N+5% Horse blood, 10^6 CFU/ml, read-out: minimum inhibiting concentration (MIC). Here is the method: as §4
A further series concerns K. pneumoniae PCI602. In words: Anti-microbial activities (MIC). It is filed as cell-based. The following applies: Klebsiella pneumoniae, Sensitivity Disk agar-N+5% Horse blood, 10^6 CFU/ml, read-out: minimum inhibiting concentration (MIC). Here is the method:
as §4

The next series has as its system P. vulgaris GN7919. In words: Anti-microbial activities (MIC). It is filed as cell-based. The following applies: Proteus vulgaris, Sensitivity Disk agar-N+5% Horse blood, 10^6 CFU/ml, read-out: minimum inhibiting concentration (MIC). Here is the method: as §4
The test system of the next series is H. influenzae PRC44. In words: Anti-microbial activities (MIC). Type of series: cell-based. The following applies: Haemophilus influenzae, Sensitivity Disk agar-N+5% Horse blood, 10^6 CFU/ml, read-out: minimum inhibiting concentration (MIC). Here is the method:
as §4

The test system of another series is H. influenzae PRC2. In words: Anti-microbial activities (MIC). It is filed as cell-based. The following applies: Haemophilus influenzae, Sensitivity Disk agar-N+5% Horse blood, 10^6 CFU/ml, read-out: minimum inhibiting concentration (MIC). How it is done:
as §4

Series [3] relates to S. aureus M126 (methicillin-hyper resistant strain, MRSA). The series is described as follows: Anti-microbial activities (MIC). As to conditions: Staphylococcus aureus, Sensitivity Disk agar-N+5% Horse blood, 10^6 CFU/ml, read-out: minimum inhibiting concentration (MIC). Type of series: cell-based. How it is done:
as §4
*: methicillin-hyper resistant strain (MRSA);

The subject of series [4] is S. pneumoniae PRC9 (penicillin-hyper resistant strain, PRSP). The series is described as follows: Anti-microbial activities (MIC). Type of series: cell-based. As to conditions: Streptococcus pneumoniae, Sensitivity Disk agar-N+5% Horse blood, 10^6 CFU/ml, read-out: minimum inhibiting concentration (MIC). Here is the method:
as §4
**: penicillin-hyper resistant strain (PRSP);

The next series can be described thus: Acute toxicity test. It is filed as in vivo, mice (ICR, male). As to conditions: intravenous, 2000 mg/kg, mice, n=3. Here is the method:
The compound of Example 1 was administered intravenously to mice (ICR, male, n =3) in an amount of 2000 mg/kg.

The structures appear in SMILES notation. Converted amounts (≈) assume the structure as drawn. Where a name gives a salt, the structure may show the parent alone.

Regarding `C[C@@H](O)[C@H]1C(=O)N2C(C(=O)O)=C(S[C@@H]3CN[C@H](C(=O)N(C)C)C3)[C@H](C)[C@H]12` [C, meropenem, reference compound], the remaining at 3 h stood at 18% in [1] and 72% in series [2].

In the case of `C[C@@H](O)[C@H]1C(=O)N2C(C(=O)O)=C(SCCN=CN)C[C@H]12` [Compound A, imipenem, reference compound], the MIC is 0.78 µg/mL (≈ 2.61 µM) with E. faecalis W-73; below 0.025 µg/mL in the series on S. epidermidis ATCC14990; below 0.025 µg/mL in the series with B. catarrhalis W-0506; 0.2 µg/mL (≈ 0.668 µM) in the series on C. freundii GN346; below 0.025 µg/mL in the series with S. aureus 209P JC-1; 0.1 µg/mL (≈ 0.334 µM) in the series with E. coli NIHJ JC-2. Also, the MIC came to 0.78 µg/mL (≈ 2.61 µM) in the series with E. hirae ATCC8043; 0.2 µg/mL (≈ 0.668 µM) with K. pneumoniae PCI602; 0.1 µg/mL (≈ 0.334 µM) in the series on P. vulgaris GN7919; 12.5 µg/mL (≈ 41.8 µM) in the series with H. influenzae PRC44; 0.78 µg/mL (≈ 2.61 µM) in the series on H. influenzae PRC2; 25 µg/mL (≈ 83.5 µM) in series [3]. Further, the MIC in [4] came out at 0.2 µg/mL (≈ 0.668 µM). In addition, the remaining at 3 h in [1] is 24%; in series [2] it was 0.6%.

With `C[C@@H](O)[C@H]1C(=O)N2C(C(=O)O)=C(S[C@@H]3CN[C@H](Cc4cn5c[n+](C)cc5s4)C3)[C@H](C)[C@H]12` [Compound B, (1R,5S,6S)-6-((1R)-1-hydroxyethyl)-1-methyl-2-[(3S,5S)-5-(6-methylimidazo[5,1-b]thiazolium-2-yl)methylpyrrolidin-3-yl]thiocarbapen-2-em-3-carboxylic acid iodide, reference compound], the MIC in the series with E. faecalis W-73 is 3.13 µg/mL; in the series on S. epidermidis ATCC14990, 0.05 µg/mL; in the series on B. catarrhalis W-0506, below 0.025 µg/mL; in the series with C. freundii GN346, 0.1 µg/mL; in the series with S. aureus 209P JC-1, below 0.025 µg/mL; in the series with E. coli NIHJ JC-2, 0.05 µg/mL. The MIC was 1.56 µg/mL in the series on E. hirae ATCC8043; 0.1 µg/mL in the series with K. pneumoniae PCI602; 0.1 µg/mL in the series on P. vulgaris GN7919; 0.78 µg/mL in the series on H. influenzae PRC44; 0.1 µg/mL in the series on H. influenzae PRC2; 6.25 µg/mL in series [3]. In series [4], the MIC is 0.39 µg/mL.

With `C[C@@H](O)[C@H]1C(=O)N2C(C(=O)O)=C(c3cn4cncc4s3)[C@H](C)[C@H]12` [Example 1, (1S,5R,6S)-6-((1R)-1-hydroxyethyl)-2-(imidazo[5,1-b]thiazol-2-yl)-1-methyl-1-carbapen-2-em-3-carboxylic Acid], the MIC in the series on E. faecalis W-73 is 0.2 µg/mL (≈ 0.6 µM); in the series with S. epidermidis ATCC14990, below 0.025 µg/mL; in the series with B. catarrhalis W-0506 it was below 0.025 µg/mL; in the series with C. freundii GN346, 1.56 µg/mL (≈ 4.68 µM); in the series on S. aureus 209P JC-1, below 0.025 µg/mL; with E. coli NIHJ JC-2 it was 0.1 µg/mL (≈ 0.3 µM). Moreover, the MIC with E. hirae ATCC8043 is 0.39 µg/mL (≈ 1.17 µM); in the series with K. pneumoniae PCI602, 0.1 µg/mL (≈ 0.3 µM); with P. vulgaris GN7919 it was 0.05 µg/mL (≈ 0.15 µM); in the series with H. influenzae PRC44, 0.39 µg/mL (≈ 1.17 µM); with H. influenzae PRC2, below 0.025 µg/mL; in [3] it was 3.13 µg/mL (≈ 9.39 µM). Besides, in [4], the MIC stood at 0.1 µg/mL (≈ 0.3 µM). In addition, the remaining at 3 h in series [1] is below 2.9%; in [2], 87%. In the series “Acute toxicity test”, the “survival (acute toxicity)” value is given as “all of the animals were survived”.

For the compound `C[C@@H](O)[C@H]1C(=O)N2C(C(=O)[O-])=C(c3cn4c[n+](C)cc4s3)[C@H](C)[C@H]12` [Example 4, (1S,5R,6S)-6-((1R)-1-hydroxyethyl)-1-methyl-2-(6-methylimidazo[5,1-b]thiazolium-2-yl)-1-carbapen-2-em-3-carboxylate (inner salt)], the MIC with E. faecalis W-73 was 0.1 µg/mL; in the series with S. epidermidis ATCC14990, below 0.025 µg/mL; in the series with B. catarrhalis W-0506 it was below 0.025 µg/mL; with C. freundii GN346 it was 0.1 µg/mL; in the series with S. aureus 209P JC-1, below 0.025 µg/mL; with E. coli NIHJ JC-2, below 0.025 µg/mL. Moreover, the MIC in the series on E. hirae ATCC8043 was found to be 0.78 µg/mL; in the series with K. pneumoniae PCI602, 0.05 µg/mL; with P. vulgaris GN7919 it was 0.1 µg/mL; in the series with H. influenzae PRC44, 0.39 µg/mL; in the series on H. influenzae PRC2, 0.05 µg/mL; in [3] it was 3.13 µg/mL. Also, the MIC in series [4] was found to be 0.05 µg/mL. Further, the figures for the remaining at 3 h in series [1] and in series [2] were 94% and 100%, respectively.

Regarding `C[C@@H](O)[C@H]1C(=O)N2C(C(=O)O)=C(c3cn4cncc4s3)C[C@H]12` [Example 8, (5R,6S)-6-((1R)-1-hydroxyethyl)-2-(imidazo[5,1-b]thiazol-2-yl)-1-carbapen-2-em-3-carboxylic Acid], the MIC in the series on E. faecalis W-73 was 0.39 µg/mL (≈ 1.22 µM); in the series on S. epidermidis ATCC14990, 0.05 µg/mL (≈ 0.157 µM); in the series with B. catarrhalis W-0506, below 0.025 µg/mL; in the series with C. freundii GN346, 0.2 µg/mL (≈ 0.626 µM); in the series with S. aureus 209P JC-1 it was below 0.025 µg/mL; in the series with E. coli NIHJ JC-2, 0.1 µg/mL (≈ 0.313 µM). For the same compound, the MIC in the series with E. hirae ATCC8043 came out at 0.78 µg/mL (≈ 2.44 µM); in the series with K. pneumoniae PCI602, 0.05 µg/mL (≈ 0.157 µM); with P. vulgaris GN7919 it was 0.1 µg/mL (≈ 0.313 µM); in the series with H. influenzae PRC44 it was 0.78 µg/mL (≈ 2.44 µM); in the series with H. influenzae PRC2, 0.05 µg/mL (≈ 0.157 µM); in series [3], 6.25 µg/mL (≈ 19.6 µM). For the same compound, the MIC in series [4] worked out at 0.2 µg/mL (≈ 0.626 µM). Besides, the remaining at 3 h in series [1] is below 0.2%; in [2], 60%.

The record behind these values is US6310056A, “Carbapenem derivatives” (Meiji Seika Kaisha, Ltd., priority 1997, dated 2001).
